From patent US20230365563A1, “QUINAZOLINE COMPOUND AND APPLICATION THEREOF” (SHANGHAI PHARMACEUTICALS HOLDING CO., LTD., priority 2020, published 2023)
Where a name gives a salt, the structure may show the parent alone.

Columns and labels:
KRAS_G12D and cRAF = target: T1, KRAS_G12D and cRAF (Homo sapiens, UniProt P01116, G12D); assay: Inhibition of KRAS_G12D/cRAF binding (Cisbio binding kit, 665/615 ratio), Effect Embodiment B; settings: read-out: GTP-KRAS-G12D:CRAF IC50
T1 construct: purchased
Description: (§1) Similarly, the first dilution point of the compound to be tested was its storage solution, and the solution was 3-fold diluted, with 11+0 points of dilution. Echo was used to transfer 0.2 μL gradient diluted solution of the compounds into a 384-well plate, with 2 duplicated wells for each compound, and the final concentration of DMSO was 1%. The solution was centrifuged for 1 min at 1000 rpm/min.
(§2) IC50 of the compounds was fitted by Graphpad Prism 8 nonlinear regression equation: […]
(§3) The IC50 (half inhibitory concentration) of the compound was obtained by using the following nonlinear fitting formula: […]

KRAS-G12D and SOS1 = target: T2, KRAS-G12D and SOS1 (Homo sapiens, UniProt P01116, G12D); assay: Inhibition of KRAS-G12D/SOS1 binding (Cisbio binding kit, 665/615 ratio), Effect Embodiment A; settings: read-out: GTP-KRAS-G12D:SOS1 IC50
T2 construct: purchased
Summary of the method: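 Compounds underwent 3-fold dilution from their storage solutions (11 points), were transferred to assay wells in duplicate with DMSO held at 1% final, and were briefly centrifuged.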

KRAS_WT and SOS1 = target: T3, KRAS_WT and SOS1 (Homo sapiens, UniProt P01116); assay: Inhibition of KRAS_WT/SOS1 binding (Cisbio binding kit, 665/615 ratio), Effect Embodiment C; settings: read-out: GTP-KRAS-WT:SOS1 IC50
T3 construct: purchased
Description: The inhibitory ability of small molecule compounds on the binding activity of KRAS_WT and SOS1 was examined by a drug screening system based on the combination of KRAS_WT and SOS1.
as §1, §2, §3

T3 sequence (P01116 1-188 isoform P01116-2): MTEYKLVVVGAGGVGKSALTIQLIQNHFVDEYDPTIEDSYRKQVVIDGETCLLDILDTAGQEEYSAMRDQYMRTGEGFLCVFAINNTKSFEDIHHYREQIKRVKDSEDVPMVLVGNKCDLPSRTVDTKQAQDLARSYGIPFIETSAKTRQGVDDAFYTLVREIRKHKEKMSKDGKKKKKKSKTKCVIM
T1 sequence (P01116 1-188 isoform P01116-2 G12D): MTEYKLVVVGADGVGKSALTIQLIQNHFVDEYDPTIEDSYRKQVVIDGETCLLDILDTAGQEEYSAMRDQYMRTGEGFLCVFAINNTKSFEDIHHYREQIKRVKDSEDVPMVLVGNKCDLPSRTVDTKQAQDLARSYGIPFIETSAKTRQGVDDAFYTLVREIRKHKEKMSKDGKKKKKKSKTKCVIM
T2 sequence (P01116 1-188 isoform P01116-2 G12D): as above

SMILES | IC50 (KRAS_G12D and cRAF) | IC50 (KRAS-G12D and SOS1) | IC50 (KRAS_WT and SOS1)
CN(C)C1CN(c2nc(N3CCNCC3)c3cc(Cl)c(-c4cc(O)cc5ccccc45)c(F)c3n2)C1 (single isomer, unassigned) [Comparative embodiment a, reference compound] | 7310 nM | 1350 nM | 
CN(C)C1CN(c2nc(N3C[C@@H]4C[C@H]3CN4)c3cc(Cl)c(-c4cc(O)cc5ccccc45)c(F)c3n2)C1 (single isomer, unassigned) [Compound 2a, (R or S)-4-(4-((1S,4S)-2,5-diazabicyclo [2.2.1]heptan-2-yl)-6-chloro-2-(3-(dimethylamino)azetidin-1-yl)-8-fluoro-quinazolin-7-yl)naphthalen-2-ol] | 589 nM | 248 nM | 9750 nM
CN(C)C1CN(c2nc(N3C4CC5CC3CC(C4)N5)c3cc(Cl)c(-c4cc(O)cc5ccccc45)c(F)c3n2)C1 (single isomer, unassigned) [Compound 34, 4-((S or R)-4-(2,6-diazaadamantan-2-yl)-6-chloro-2-(3-(dimethylamino)azetidin-1-yl)-8-fluoroquinazolin-7-yl)naphthalen-2-ol] |  | 188 nM | 279 nM
CN(C)C1CN(c2nc(N3CCC4NCCC43)c3cc(Cl)c(-c4cc(O)cc5ccccc45)c(F)c3n2)C1 (single isomer, unassigned) [Compound 36, 4-((S or R)-6-chloro-2-(3-(dimethylamino)azetidin-1-yl)-8-fluoro-4-((3aS,6aS or 3aR,6aR)-hexahydropyrrolo [3,2-b]pyrrole-1(2H)-yl)quinazolin-7-yl)naphthalen-2-ol] |  | 277 nM | > 100000 nM
CO[C@H](COc1nc(N2CC3CCC(C2)N3)c2cc(Cl)c(-c3cc(O)cc4ccccc34)c(F)c2n1)CN1C2CCC1COC2 (single isomer, unassigned) [Compound 184, (4R or S)-4-(2-((2S)-3-(3-oxa-8-azabicyclo[3.2.1]octan-8-yl)-2-methoxypropoxy)-4-((1R,5S)-3,8-diazabicyclo[3.2.1]octan-3-yl)-6-chloro-8-fluoroquinazolin-7-yl)naphthalen-2-ol diformate] | 461 nM | 113 nM | 
Nc1cc(-c2c(Cl)cc3c(N4C[C@H]5CC[C@@H](C4)N5)nc(OCCCN4C5CCC4COC5)nc3c2F)c2ccccc2c1 (single isomer, unassigned) [Compound 192b, 4-((7S or 7R)-2-(3-(3-oxa-8-azabicyclo[3.2.1]octan-8-yl)propoxy)-4-((1R,5S)-3,8-diazabicyclo[3.2.1]octan-3-yl)-6-chloro-8-fluoroquinazolin-7-yl)naphthalen-2-amine tritrifluoroacetate] | 431 nM | 186 nM | 
CC(F)(COc1nc(N2CC3CCC(C2)N3)c2cc(Cl)c(-c3cc(O)cc4ccccc34)c(F)c2n1)CN1C2CCC1COC2 (single isomer, unassigned) [Compound 208a, ((4S or 4R)-4-(2-((2(R or S)-3-(3-oxa-8-azabicyclo[3.2.1]octan-8-yl)-2-fluoro-2-methylpropoxy)-4-((1R,5S)-3,8-diazabicyclo[3.2.1]octan-3-yl)-6-chloro-8-fluoroquinazolin-7-yl)naphthalen-2-ol formate] | 109 nM | 42.5 nM | 
CC(F)(COc1nc(N2CC3CCC(C2)N3)c2cc(Cl)c(-c3cc(O)cc4ccccc34)c(F)c2n1)CN1C2CCC1COC2 (single isomer, unassigned) [Compound 208b, (4S or 4R)-4-(2-((2(S or R)-3-(3-oxa-8-azabicyclo[3.2.1]octan-8-yl)-2-fluoro-2-methylpropoxy)-4-((1R,5S)-3,8-diazabicyclo[3.2.1]octan-3-yl)-6-chloro-8-fluoroquinazolin-7-yl)naphthalen-2-ol formate] | 272 nM | 97.5 nM | 
Oc1cc(-c2c(Cl)cc3c(N4CC5CCC(C4)N5)nc(OCC(CN4C5CCC4COC5)C4CC4)nc3c2F)c2ccccc2c1 (single isomer, unassigned) [Compound 209b, 4-((7S or 7R))-2-(2(S or R))-3-(3-oxa-8-azabicyclo[3.2.1]octan-8-yl)-2-cyclopropylpropoxy)-4-((1R,5S)-3,8-diazabicyclo[3.2.1]octan-3-yl)-6-chloro-8-fluoroquinazolin-7-yl)naphthalen-2-ol diformate] | 293 nM | 90.9 nM | 
Oc1cc(-c2c(Cl)cc3c(N4CC5CCC(C4)N5)nc(OCC(CN4C5CCC4COC5)C(F)(F)F)nc3c2F)c2ccccc2c1 (single isomer, unassigned) [Compound 218a, 4-((7S or 7R)-2-((2S or 2R)-2-((3-oxa-8-azabicyclo[3.2.1]octan-8-yl)methyl)-3,3,3-trifluoropropoxy)-4-((1R,5S)-3,8-diazabicyclo[3.2.1]octan-3-yl)-6-chloro-8-fluoroquinazolin-7-yl)naphthalen-2-ol diformate] | 579 nM | 91.9 nM | 
CC[C@@H]1CN(C[C@@H](C)COc2nc(N3CC4CCC(C3)N4)c3cc(Cl)c(-c4cc(O)cc5ccccc45)c(F)c3n2)C[C@H](CC)O1 (single isomer, unassigned) [Compound 219, 4-((S or R)-4-((1R,5S)-3,8-diazabicyclo[3.2.1]octan-3-yl)-6-chloro-2-((R)-3-((2R,6S)-2,6-diethylmorpholinyl)-2-methylpropoxy)-8-fluoroquinazolin-7-yl)naphthalen-2-ol formate] | 21.6 nM | 17.4 nM | 
C[C@@H](COc1nc(N2CC3CCC(C2)N3)c2cc(Cl)c(-c3cc(O)cc4ccccc34)c(F)c2n1)CN1C[C@H](C)O[C@@H](C)C1 (single isomer, unassigned) [Compound 220, 4-((S or R)-4-((1R,5S)-3,8-diazabicyclo[3.2.1]octan-3-yl)-6-chloro-2-((R)-3-((2S,6S)-2,6-dimethylmorpholinyl)-2-methylpropoxy)-8-fluoroquinazolin-7-yl)naphthalen-2-ol formate] | 29.6 nM | 19.3 nM | 
C[C@@H](COc1nc(N2CC3CCC(C2)N3)c2cc(Cl)c(-c3cc(O)cc4ccccc34)c(F)c2n1)CN1C[C@@H](C)OC[C@@H]1C (single isomer, unassigned) [Compound 226, 4-((S or R)-4-((1R,5S)-3,8-diazabicyclo[3.2.1]octan-3-yl)-6-chloro-2-((R)-3-((2R,5S)-2,5-dimethylmorpholinyl)-2-methylpropoxy)-8-fluoroquinazolin-7-yl)naphthalenol formate] | 154 nM | 67.9 nM | 
C[C@@H](COc1nc(N2CC3CCC(C2)N3)c2cc(Cl)c(-c3cc(B(O)O)cc4ccccc34)c(F)c2n1)CN1C2CCC1COC2 (single isomer, unassigned) [Compound 256, (4-((7S or 7R)-2-((2R)-3-(3-oxa-8-azabicyclo[3.2.1]octan-8-yl)-2-methylpropoxy)-4-((1R,5S)-3,8-diazabicyclo[3.2.1]octan-3-yl)-6-chloro-8-fluoroquinazolin-7-yl)naphthalen-2-yl)boronic acid ditrifluoroacetate] | 358 nM | 92.1 nM | 
CN(C)C1CN(c2nc(N3C[C@H]4CC[C@@H](C3)N4)c3cnc(-c4cc(O)cc5ccccc45)c(F)c3n2)C1 [Compound 78, 4-(4-((1R,5S)-3,8-diazabicyclo[3.2.1]octan-3-yl)-2-(3-(dimethylamino)azetidin-1-yl)-8-fluoropyridine[4,3-d]pyrimidin-7-yl)naphthalen-2-ol] |  | 44.2 nM | 847 nM
CN1CC(F)(F)C[C@H]1COc1nc(N2CC3CCC(C2)N3)c2cnc(-c3cc(O)cc4ccccc34)c(F)c2n1 [Compound 135, 4-(4-((1R,5S)-3,8-diazabicyclo[3.2.1]octan-3-yl)-2-((S)-4,4-difluoro-1-methylpyrrolidin-2-yl)methoxy)-8-fluoropyridinyl[4,3-d]pyrimidin-7-yl)naphthalen-2-ol formate] |  | 133 nM | 
Oc1cc(-c2ncc3c(N4C[C@H]5CC[C@@H](C4)N5)nc(OCCc4ccccn4)nc3c2F)c2ccccc2c1 [Compound 138, 4-(4-((1R,5S)-3,8-diazabicyclo[3.2.1]octan-3-yl)-8-fluoro-2-(2-(pyridin-2-yl)ethoxy)pyridyl[4,3-d]pyrimidin-7-yl)naphthalen-2-ol trifluoroacetate] |  | 108 nM | 
CN1C[C@H]2C[C@H]2[C@H]1COc1nc(N2CC3CCC(C2)N3)c2cnc(-c3cc(O)cc4ccccc34)c(F)c2n1 [Compound 141, 4-(4-((1R,5S)-3,8-diazabicyclo[3.2.1]octan-3-yl)-8-fluoro-2-((1R,2S,5R)-3-methyl-3-azabicyclo[3.1.0]hexan-2-yl)methoxy)pyridin[4,3-d]pyrimidin-7-yl)naphthalen-2-ol dihydrochloride] |  | 87.6 nM | 
CN1CCC[C@H]1COc1nc(N2CC3NC(C2)C2CC32)c2cnc(-c3cc(O)cc4ccccc34)c(F)c2n1 (stereo partly drawn) [Compound 158, 4-(8-Fluoro-2-((S)-1-methylpyrrolidin-2-yl)methoxy)-4-((1R,2R,4S,5S)-7,9-diazatricyclo[3.3.1.0^2,4]nonan-7-yl)pyridinyl[4,3-d]pyrimidin-7-yl)naphthalen-2-ol diformate] |  | 199 nM | 
CN(C)CCCOc1nc(N2C[C@H]3CC[C@@H](C2)N3)c2ccn(-c3cc(O)cc4ccccc34)c(=O)c2n1 [Compound 161, 4-((1R,5S)-3,8-diazabicyclo[3.2.1]octan-3-yl)-2-(3-(dimethylamino)propoxy)-7-(3-hydroxynaphthalen-1-yl)pyrido[3,4-d]pyrimidin-8(7H)-one dihydrochloride] |  | > 10000 nM | 
